Laboratory results from patent publication US20110136897A1, “TOLL-LIKE RECEPTOR 9 AGONISTS FOR THE TREATMENT OF ANXIETY-RELATED DISORDERS AND INFLAMMATORY DISORDERS” (YISSUM RESEARCH DEVELOPMENT COMPANY OF THE HEBREW …, priority 2008, published 2011).
In the oligonucleotide strings, read from the 5' end, every base follows the letter of its sugar. An asterisk marks phosphorothioate; unmarked linkages are phosphodiester. Other units and linkages are bracketed, terminal groups are in braces. A string of capitals states the bases alone. d = 2'-deoxy (DNA)

Tests used:
RAW264.7 cells [1] = assay: HSP90 and GR immunostaining and colocalization, confocal microscopy; format: cell-based, mouse; conditions: 24 h, 1-10 μM
Method: Immunohistochemistry: Cells were fixed with 4% PFA in phosphate-buffered saline (PBS) for 15 minutes at room temperature (RT), washed and transferred to 100% MetOH at −20° C. for 5 minutes. Afterwards, cells were washed twice with a blocking medium containing PBS, 1% bovine serum albumin (BSA) and 0.01% NaN3 and then were incubated for 1 hour at RT with anti-HSP90 and anti-GR antibodies (1:50) (Santa Cruz Biotechnology, CA). After incubation, cells were washed twice in blocking medium and incubated with 1:100 secondary antibodies (Jackson Immunoresearch Laboratories, PA). Slides were mounted onto glass slides and visualized by confocal microscopy.

[2] = target: T1, glucocorticoid receptor (GR) (Mus musculus, UniProt P06537); assay: Glucocorticoid receptor whole cell [3H]dexamethasone binding assay, RAW264.7; format: cell-based; parameters: host or cells: RAW264.7 (mouse macrophage cell line)
T1 sequence (P06537 1-792): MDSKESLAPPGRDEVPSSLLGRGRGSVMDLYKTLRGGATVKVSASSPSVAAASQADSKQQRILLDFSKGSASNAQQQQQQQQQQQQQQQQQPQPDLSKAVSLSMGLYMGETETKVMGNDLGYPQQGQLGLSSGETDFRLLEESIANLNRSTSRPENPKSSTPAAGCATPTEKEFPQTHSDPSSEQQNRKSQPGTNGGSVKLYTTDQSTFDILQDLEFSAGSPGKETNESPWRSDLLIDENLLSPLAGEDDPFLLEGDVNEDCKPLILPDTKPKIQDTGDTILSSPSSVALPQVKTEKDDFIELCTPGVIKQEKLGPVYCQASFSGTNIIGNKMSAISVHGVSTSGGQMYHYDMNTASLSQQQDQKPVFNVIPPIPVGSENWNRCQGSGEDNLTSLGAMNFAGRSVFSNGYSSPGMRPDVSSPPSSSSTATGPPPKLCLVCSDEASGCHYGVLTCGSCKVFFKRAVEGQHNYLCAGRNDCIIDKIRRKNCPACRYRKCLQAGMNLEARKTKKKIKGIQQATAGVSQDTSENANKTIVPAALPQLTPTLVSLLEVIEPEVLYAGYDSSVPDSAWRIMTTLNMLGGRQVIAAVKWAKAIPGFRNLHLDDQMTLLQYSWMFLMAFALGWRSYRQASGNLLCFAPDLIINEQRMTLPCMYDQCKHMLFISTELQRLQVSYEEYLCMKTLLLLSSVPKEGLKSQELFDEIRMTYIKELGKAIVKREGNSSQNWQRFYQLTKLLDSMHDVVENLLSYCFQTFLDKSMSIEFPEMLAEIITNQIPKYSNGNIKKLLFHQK
Method: Glucocorticoid receptor assay: A whole cell binding assay was used to determine GR number and affinity. 0.7×10^6 RAW264.7 cells in 2 ml medium were grown in 24-wells plates until 80% confluence was obtained. After the appropriate treatment, the medium was replaced with a saturating concentration of 50 nM [^3H]dexamethasone (85.0 Ci/mmol) (Amersham Biosciences, NJ, USA) in 5 μM unlabeled dexamethasone (Sigma, Israel). After incubation for 2 hours at 37° C., cells were washed 6 times with cold PBS and lysed in 1M NaOH. Lysates were harvested and counted in a beta-spectrometer.
Since HSP90 modulates GR activity by increasing its affinity to glucocorticoids (GCs) it was wondered whether such an effect could be obtained by activating TLR9. In order to challenge that hypothesis, RAW264.7 cells were incubated with varying concentrations of hEN101 for 24 hours and the medium was subsequently replaced with one containing different concentration of 50 nM [^3H]dexamethasone and 5 μM unlabeled dexamethasone. After a 2 hour incubation, radioactivity was measured in a beta-spectrometer.

RAW264.7 cells [3] = assay: Nitric oxide (NO) production, Griess reaction; format: cell-based, mouse; conditions: for effect on 10 μM mEN101-driven increases in NO: added with 10 μM mEN101
Method: The mouse macrophage cell line RAW 264.7 (ATCC, Bethesda, Md.) was cultured in Dulbecco's modified Eagle's medium (DMEM) (Biological Industries) supplemented with 10% heat-inactivated fetal bovine serum (Biological Industries, Israel), 100 μg/ml streptomycin, 100 U/ml penicillin (Sigma) and 2 mM 1-glutamine (Biological Industries) at 37° C. in a humidified atmosphere with 5% CO2.
(§1) Determination of nitric oxide (NO) production: Nitrite concentration in the medium of cultured cells was measured as an indicator of NO production according to the Griess reaction. 1×10^5 mouse RAW264.7 cells were grown in 0.5 ml medium in 48-wells plate until 80% confluence was obtained. […] (1% sulfanilamide, 0.1% naphthylethylenediamine dihydrochloride, 5% H3PO4). Absorbance was read at 540 nm after 10 min using SPECTRAFluor Plus spectrophotometer (TECAN, UK).
To further characterize the TLR9 activating features of mEN101, mEN101 was applied to RAW264.7 cells (n=4 repeats) for 24 hours and the subsequent production of inflammatory markers was quantified. […] Addition of chloroquine (CQ), a weak base that perturbs endosomal pH and thus disturbs endosomal maturation, as well as the specific TLR9 inhibiting oligonucleotides ODN2088 and ODN TTAGGG (17), all blocked the 10 μM mEN101-driven increases in NO (p<0.015) (FIG. 2A). Thus, both gain and loss of function tests validated the nature of mEN101 as an endosomally active TLR9 activator, albeit a weak one.

RAW264.7 cells [4] = assay: Nitric oxide (NO) production, Griess reaction; format: cell-based, mouse; conditions: with 1 μM mEN101
splenocytes = assay: IFN-γ induction in splenocytes (ELISA); format: cell-based, mouse; conditions: mEN101 even at 10 μM doses
Method: Cell cultures: Spleens were removed from 5-6 week old FVB/N mice (Harlan Laboratories, Israel) and mashed until a homogeneous cell suspension was obtained. The suspension was centrifuged in a LSM Lymphocyte Separation Medium (MP Biomedicals, Solon, Ohio) and the mononuclear cell layer was separated. Cells were adjusted to a 5×10^6 cells/ml and cultured in RPMI 1640 (Biological Industries, Israel) supplemented with 5% FCS, […] L-glut, 100 μg/ml streptomycin, 100 U/ml penicillin and 5×10^−5 2-mercaptoethanol (Sigma, Israel).
ELISA: Serum was extracted by centrifuging blood in heparin-containing Microtainer LH vials (BD, Franklin Lakes, N.J.) for 10 minutes at 3000 g. Serum and cell-culture supernatants were analyzed for IL-1β, IL-6, TNF-α and IFN-γ using respective ELISA Ready-SET-Go (eBioscience, San Diego, Calif.) kits as instructed. Intensities were read using a Tecan SPECTRAFluor Plus spectrophotometer (Mannedorf, Switzerland).

RAW264.7 cells [5] = assay: LPS-induced NO production with or without corticosterone after ODN1826 pre-incubation; format: cell-based, mouse; conditions: 10 or 50 mM corticosterone, LPS 1 μg/ml, 24 hours
Method: as §1, with “nitric oxygen” for “nitric oxide”, “production: The nitrite” for “production: Nitrite”, “medium” for “medium of cultured cells”, “1×10^5” for “1×10^5 mouse”, “10 minutes” for “10 min”
In order to study the functional effects of TLR9 activation on GR signaling, RAW264.7 cells were incubated with varying concentrations of ODN1826 (SEQ ID NO: 2) for 24 hours and the medium was replaced with one containing LPS (1 μg/ml) with or without […] corticosterone (CORT) for an additional 24 hours. As expected, CORT blocked lipopolysaccharide (LPS)-induced NO production.

RAW264.7 cells [6] = assay: RT-PCR of inflammatory genes in RAW264.7 cells (Table 2); format: cell-based, mouse; conditions: 1 ug/ml
Method: Real-time PCR (RT-PCR): Brains were dissected and tissues stored frozen at −70° C. until use. Hippocampal RNA was extracted using the RNeasy Tissue Mini Kit (Qiagen, Germany). Total RNA was reverse-transcribed (200 ng) using Impromp-II reverse transcriptase (Promega, Madison, Wis.) as instructed. RT-PCR was performed using Power SYBR®Green PCR Master Mix (Applied Biosystems, UK) in a 7900 HT Sequence Detection System (Applied Biosystems, Foster City, Calif.). Quantification was assessed at the logarithmic phase of the PCR reaction. The PCR annealing temperature was 60° C. for all primer pairs. GAPDH was used as a house-keeping gene.
Shown are fold differences in RT-PCR products of RAW264.7 cells incubated with the noted doses of mEN101 or ODN1826. Note that ODN1826 affects IL1α, -1β, -6, -10, -12 and ICAM-1 gene expression at concentrations as low as 10 nM, whereas considerably higher doses of mEN101 are needed to attain similar effects. Nevertheless, mEN101 affects inflammatory gene expression even at 10 nM. 1 μg/ml LPS was used as positive control. (n=3, p<0.05 Mann-Whitney U-test compared to untreated controls, for all the data shown).

Compound: 5′-CTGCCACGTTCTCCTGCA*C*C*-3′ [hEN101]
- GR level (RAW264.7 cells [1]): not GR
- colocalization of HSP90 and GR signals (RAW264.7 cells [1]): increased colocalization of HSP90 and GR signals
- HSP90 level (RAW264.7 cells [1]; dose dependent): upregulated HSP90
- DEX (GR) Bmax, Scatchard plot analysis ([2]; 10 μM per FIG. 10D legend): increased
- concentration from which effects on [3H]dexamethasone incorporation are detectable ([2]; 24 hours pre-incubation): ≥ 1 µM
- whole cell [3H]dexamethasone incorporation / binding ([2]; 24 hours pre-incubation, dose-dependent): increased [^3H]dexamethasone incorporation

Compound: 5′-TTTAGGGTTAGGGTTAGGGTTAGGG-3′ (dT*dT*dT*dA*dG*dG*dG*dT*dT*dA*dG*dG*dG*dT*dT*dA*dG*dG*dG*dT*dT*dA*dG*dG*dG) [ODN TTAGGG]
- effect on 10 μM mEN101-driven increases in NO (RAW264.7 cells [3]): blocked
- effect on mEN101 effects on NO production (FIG. 2A legend) (RAW264.7 cells [4]): abolished

Compound: 5′-ggGGTCAACGTTGAgggggg (GGGGTCAACGTTGAGGGGGG; listed as DNA, chemistry not given here) [ODN1585, type-A CpG ODN, Invivogen]
- NO production at doses parallel to ODN1826 (10-100 nM) (RAW264.7 cells [3]; 24 hours): totally ineffective
- dose needed to initiate detectable NO overproduction (RAW264.7 cells [3]; 24 hours): 10 µM
- induction of IFN-γ (splenocytes): stronger for ODN1585 than ODN1826

Compound: C[C@]12C[C@H](O)[C@H]3[C@@H](CCC4=CC(=O)CC[C@@]43C)[C@@H]1CC[C@@H]2C(=O)CO [CORT, corticosterone]
- LPS-induced NO production (RAW264.7 cells [5]): blocked

Compound: CCN(CC)CCCC(C)Nc1ccnc2cc(Cl)ccc12 (centres unmarked) [chloroquine]
- effect on 10 μM mEN101-driven increases in NO (RAW264.7 cells [3]): blocked
- effect on mEN101 effects on NO production (FIG. 2A legend) (RAW264.7 cells [4]): abolished

Compound: lipopolysaccharide [LPS, reference compound]
- ICAM-1 RT-PCR product (RAW264.7 cells [6]): −3.74 log2 from NT
- IL1a RT-PCR product (RAW264.7 cells [6]): 8.86 log2 from NT
- IL1b RT-PCR product (RAW264.7 cells [6]): 5.42 log2 from NT
- IL6 RT-PCR product (RAW264.7 cells [6]): 3.81 log2 from NT
- IL10 RT-PCR product (RAW264.7 cells [6]): 3.20 log2 from NT
- IL12 RT-PCR product (RAW264.7 cells [6]): 8.75 log2 from NT
